Like-named read-outs stand apart in the source and are kept apart here. Where no end group is shown, it is not given here. 4MPA = not defined here
Legend:
SARS-CoV-2 [1] = test: Plaque reduction assay against SARS-CoV-2; assay type: cell-based
Method: Briefly, peptides were dissolved in PBS or 30mM phosphate buffer (PBS/5) containing 24.6 mM Na2HPO4 and 5.6 mM KH2PO4 at a pH of 7.4. Peptides or bovine serum albumin (BSA, 0.2-25.0 μg ml^−1) were premixed with SARS-CoV-2 at room temperature. After 45-60 min of incubation, peptide-virus mixture was transferred to Vero-E6 cells, correspondingly. At 1 h post infection, infectious media were removed, and 1% low melting agar was added to cells. Cells were fixed using 4% formalin at 2-3 day post infection. […] (0.1%) was added for staining, and the number of plaques was counted.

SARS-CoV-2 [2] = test: Transmission electron microscopy assay; settings: virus pretreated
Method: To determine the effect of 4H30 on viral particles, SARS-CoV-2 was pretreated by 100 μg ml^−1 of 4H30 or H30 for 1 h. The virus was fixed by formalin for overnight. For spike treated by 4H30 or H30, spike (100 μg ml^−1 mixed with 50 μg ml^−1 of 4H30 or H30. Viral or protein samples were applied to continuous carbon grids. The grids were transferred into 4% uranyl acetate and incubated for 1 min. After removing the solution, the grids were air-dried at room temperature. For each peptide/DNA nanoparticle, three independent experiments were done for taking TEM images by FEI Tecnal G2-20 TEM or Philips CM100-TEM.

SARS-CoV-2 [3] = test: Viral entry fluorescence assay; assay type: cell-based
spike and ACE2 = spike and ACE2 (Severe acute respiratory syndrome coronavirus 2, UniProt P0DTC2); settings: ELISA
Method: (§1) For determining spike and ACE2 binding, 60 ng S or ACE2 in PBST was incubated with peptides at 37° C. for 30 min.

spike = spike (Severe acute respiratory syndrome coronavirus 2, UniProt P0DTC2); settings: ELISA
Method: as §1

SARS-CoV-2 [4] = test: Nucleoprotein (NP) immunofluorescence assay; assay type: cell-based; settings: VeroE6; virus pretreated; compared with untreated virus

GAICHPVFCPRRYKQIGTCGLPGTKCCKKP-4MPA (cysteine pairing not given here; reading uncertain; also: printed as GAICHPVFCPRRYKQIGTCGLPGTKCCKKP-4MPA) [Peptide 4H30]
IC50 (SARS-CoV-2 [1]; virus premixed with peptide in PBS, plaque reduction): 0.59 µg/mL | SARS-CoV-2 infection after dilution of treated virus (SARS-CoV-2 [1]; virus pretreated by 50 μg ml^−1, then 10,000-fold diluted (0.005 μg ml^−1)): significantly inhibited SARS-CoV-2 infection | integrity of viral particles under TEM (SARS-CoV-2 [2]): did not disrupt viral particles | viral clusters under TEM (SARS-CoV-2 [2]): cross-linked SARS-CoV-2 to form bigger viral clusters | viral clustering and entry (SARS-CoV-2 [3]): did not cluster viral particles and did not block viral entry | viral clustering and entry (SARS-CoV-2 [3]; virus pretreated, Calu-3 and VeroE6 cells): cross-link SARS-CoV-2 to form big viral clusters on Calu-3 and VeroE6 cell membrane without viral entry | binding between spike and ACE2 (spike and ACE2): did not significantly affect | binding to spike (spike): more effectively bound to spike when compared with ACE2 | anti-NP staining, viral replication (SARS-CoV-2 [4]): viral replication was significantly inhibited and restricted in very few cells
